US20090163453A1, “Prevention and Treatment of Gastrointestinal and Bladder Disorders Associated with Chemotherapy or Radiation Therapy Using Active Vitamin D Compounds” (Novacea Inc., priority 2005, published 2009)

How the values were obtained:
[1] = Solubility study of calcitriol in each formulation (light microscope); assay type: physicochemical; details: each formulation of Table 3; heated to 50° C., cooled to room temperature; highest concentration tested
Method: To further assess the formulations of calcitriol, a solubility study was conducted to evaluate the amount of calcitriol soluble in each formulation. Calcitriol concentrations from 0.1 to 0.6 μg calcitriol/mg formulation were prepared by heating the formulations to 50° C. followed by addition of the appropriate mass of calcitriol. The formulations were then allowed to cool to room temperature and the presence of undissolved calcitriol was determined by a light microscope with and without polarizing light. For each formulation, calcitriol was soluble at the highest concentration tested, 0.6 μg calcitriol/mg formulation.

[2] = tested on: patients with androgen independent prostate cancer; details: human, in vivo
Method: Two hundred fifty patients with androgen independent prostate cancer were enrolled in a randomized placebo controlled trial at 48 centers in the United States and Canada.
The same Taxotere® dose of 36 mg/m^2 body surface area was administered to the patients receiving Taxotere® and placebo or Taxotere® in combination with calcitriol.
Hospitalization for dehydration was more common in those patients receiving Taxotere® and placebo.

patients = details: administered doses with cisplatin infusions; cited from earlier work

Row | SMILES | Calcitriol soluble in formulation [1] | GI disorders versus Taxotere and placebo [2] | Emesis, percent of patients (patients) | Hypotension, percent of patients (patients)
1 | C=C1/C(=C\C=C2/CCC[C@]3(C)[C@@H]([C@H](C)CCCC(C)(C)O)CC[C@@H]23)C[C@@H](O)C[C@@H]1O [Calcitriol, 1α,25-hydroxyvitamin D3] | ≥ 0.6 μg calcitriol/mg formulation | fewer GI disorders | – | –
2 | NCCCNCCSP(=O)(O)O [WR 2721, S-2-(3-aminopropylamino)ethylphosphorothioic acid] | – | – | 48 % of patients | 7 % of patients
